According to patent US20080085264A1, “METHODS FOR ENHANCING STEM CELL ENGRAFTMENT DURING TRANSPLANTATION” (priority 2003, published 2008):

Experiments:
[1] = tested on: BoyJ recipient mice; assay: Non-competitive long-term engraftment; format: in vivo, mouse; conditions: six months post transplant, P<0.05, n=5
Experimental: Control C57BL/6 (CD45.2^+) or CD26 inhibitor treated C57BL/6 (CD45.2^+) LD donor BM cells were transplanted by tail-vein injection into lethally irradiated (1100 cGy split dose) congenic BoyJ (CD45.1^+) female recipient mice (Haneline L S, et al. Blood. 1999; 94:1-8). Contribution of donor cells was obtained by measuring the number of donor and residual recipient lymphocytes in the peripheral blood. The % donor contribution was calculated by flow cytometric analysis of peripheral blood lymphocytes found in the recipient mouse peripheral blood by measuring CD45.1^+ and CD45.2^+ on cells isolated from the recipient mice 1-6 months post transplant. No less than five mice from each recipient group were analyzed, each one having received a transplant of 5×10^5 pooled LD donor BM cells. Comparisons between treatment groups were made using a two-tailed Student's t-test and data was plotted as mean (M)±standard error of the mean (SEM).

[2] = tested on: Sca-1+c-kit-lin- mBM cells; assay: Chemotaxis assay, CXCL12 induced migration of sorted Sca-1+c-kit-lin- mBM cells; format: cell-based, mouse; conditions: 5 mM Diprotin A
Experimental: Chemotaxis assays were performed using 96-well chemotaxis chambers (NeuroProbe, Gaithersburg, Md.) in accordance with manufacturer's instructions as described previously with minor variations (Christopherson K W, 2nd, et al. J Immunol. 2002; 169:7000-7008; Christopherson K W, 2nd, et al. Blood. 2001; 98:3562-3568; Christopherson K, 2nd, et al. Immunol Lett. 1999; 69:269-273). Briefly 300 μl of RPMI supplemented with 10% FBS and either 0, 100, 200, and 400 ng/ml of mouse CXCL12 chemokine was added to the lower chamber. Ten-thousand sorted cells in 50 μL of media were added to the upper side of the membrane (5.7 mm diameter, 5 μm pore size, polycarbonate membrane.)
Total cell number in the lower well was obtained by counting using hemocytometer after 4 hours of incubation at 37° C., 5% CO2. Percent migration was calculated by dividing the number of the cells in the lower well by the total cell input multiplied by 100 and subtracting random migration (always less than 5%) to the lower chamber without chemokine presence. Three samples were analyzed separately in triplicate, and then the data averaged for statistical analysis.
The N-terminal truncated mouse CXCL12 (CXCL12 (amino acids 3-68)) was produced by treatment of mouse CXCL12 with DPPIV (Enzyme Systems Products, Livermore, Calif.) for 18 hrs at 37° C. in PBS pH 7.4. […]

[3] = tested on: DBA/2 mice; assay: G-CSF induced mobilization of HSC/HPC in DBA/2 mice (progenitor cell assays of peripheral blood); format: in vivo, mouse; conditions: inhibitor treatment during G-CSF mobilization
Experimental: Mobilization was achieved by treating mice with 2.5 μg (micrograms) G-CSF/mouse 2×/day s.c. for 2 days (Broxmeyer H E, et al. J Exp Med. 1999; 189:1987-1992). Mice simultaneously treated with a specific CD26 inhibitor also underwent treatment with either 5 μmol Diprotin A/mouse 2×/day s.c. for 2 days or 5 μmol Val-Pyr/mouse 2×/day s.c. for 2 days. Diprotin A was obtained commercially (Peptides International, Louisville, Ky.) and Val-Pyr was obtained as a gift from Nicolai Wagtmann (Novo Nordisk, Denmark). After either G-CSF or G-CSF plus CD26 inhibitor treatment peripheral blood cells were collected and total cellular nuclearity was measured and progenitor cell assays were performed using total peripheral blood cells.
One-hundred thousand mouse G-CSF mobilized peripheral blood cells were plated in triplicate for colony formation by CFU-GM, BFU-E, and CFU-GEMM and scored at 7 days incubation as previously described (Cooper S, Broxmeyer H E. Measurement of interleukin-3 and other hematopoietic growth factors, such as GM-CSF, G-CSF, M-CSF, erkythropoietin and the potent co-stimulating cytokines steel factor and FLt-3 ligand. In: Coligan J E K A, Margulies D H, Shevach E M, Strober E, Coico R, ed. Current protocols in immunology. New York: John Wiley & Sons; 1996:6.4.1-6.4.12). Cells were plated for colony formation in 1% methylcellulose culture medium containing 30% FBS, 1 U/ml recombinant(r) human Epo, 0.1 mM Hemin, 5% Pokeweed Mitogen Spleen Conditioned Media (PWMSCM), and 50 ng/ml rmouse Steel Factor (=Stem Cell Factor, SCF).

[4] = tested on: BoyJ irradiated mice; assay: Competitive repopulation assay; format: in vivo, mouse; conditions: six months post transplant, 5×10^5 or 2.5×10^5 donor cells vs 5×10^5 competitor BoyJ cells
Source text: Donor LDBM cells (5×10^5) from representative mice from each test group were transplanted into lethally irradiated BoyJ mice (expressing CD45.1) Quantitative contribution to chimerism was obtained 2-6 months post-transplantation in the same manner described for long-term engraftment assays.
Eight week old female recipient mice were lethally irradiated (1100 cGy split dose) prior to transplantation as previously described (Haneline L S, et al. Blood. 1999; 94:1-8). Limiting dilutions of donor LD BM cells (5×10^5, 2.5×10^5, 1.25×10^5, and 0.625×10^5 cells) from control C57Bl/6 mice, CD26-inhibitor treated LD BM cells, or untreated LD BM cells from CD26^−/− mice (all expressing CD45.2) are co-transplanted with a constant number (5×10^5) of pooled competitive BM cells from congenic BoyJ mice (expressing CD45.1), into BoyJ irradiated mice. To determine quantitatively the relative cell contribution to chimerism of each test cell population tail-vein blood samples were obtained post-transplantation each month for three months and CD45.1 and CD45.2 was measured by flow-cytometry. Cells were divided into CD26 inhibitor (either Diprotin A or Val-Pyr) treated or untreated groups obtained from normal C57BL/6 mice and untreated cells obtained from CD26^−/− mice. […]

Ile-Pro-Ile [Diprotin A]
donor cell contribution to the formation of peripheral blood leukocytes [1]: Increased donor cell contribution | increase in total cell migration ([2]; 100 ng/ml CXCL12): 2.5 fold | increase in total cell migration ([2]; 200 and 400 ng/ml CXCL12): two-fold | reduction in BFU-E compared to G-CSF alone [3]: 56% | reduction in CFU-GEMM compared to G-CSF alone [3]: 71% | reduction in CFU-GM compared to G-CSF alone [3]: 62% | donor contribution to chimerism [4]: increased donor contribution to chimerism
